Reference: the supplement of paper PMC11061612

Legend:
SN-38 = compound: CCc1c2c(nc3ccc(O)cc13)-c1cc3c(c(=O)n1C2)COC(=O)[C@]3(O)CC [SN-38]; settings: max 0.3 µM
Outline: (§1)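 After 24 hours at 37°C and 5% CO2 in 1536-well plates holding 7.5 μl of DMEM/F12 or RPMI with 10% FBS, cancer cell lines were dosed for 72 hours, with final DMSO typically 0.2%. Viability came from CellTiter-Glo 2.0 luminescence, scaled between the means of blank wells and DMSO wells. A non-linear mixed effects model fitted a two-parameter logistic curve to each dose response to give the single-agent IC50.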

Taselisib = compound: Cc1nc(-c2cn3c(n2)-c2ccc(-c4cnn(C(C)(C)C(N)=O)c4)cc2OCC3)n(C(C)C)n1 [Taselisib]; settings: max 10 µM
Outline: as §1

AZD5363 = compound: C1CN(CCC1(C(=O)N[C@@H](CCO)C2=CC=C(C=C2)Cl)N)C3=NC=NC4=C3C=CN4 [AZD5363]; settings: max 10 µM
Outline: as §1

Alisertib = compound: COc1cc(Nc2ncc3c(n2)-c2ccc(Cl)cc2C(c2c(F)cccc2OC)=NC3)ccc1C(=O)O [Alisertib]; settings: max 10 µM
Outline: as §1

AZD4320 = compound: CN(CC[C@H](CSC1=CC=CC=C1)NC2=C(C=C(C=C2)S(=O)(=O)NC(=O)C3=CC=C(C=C3)N4CCC(CC4)[C@H](C5=CC=CC=C5C6=CC=C(C=C6)Cl)O)S(=O)(=O)C(F)(F)F)CCO [AZD4320]; settings: max 1 µM
Outline: as §1

AZD0156 = compound: CN(C)CCCOc1ccc(-c2ccc3ncc4c(c3c2)n(C2CCOCC2)c(=O)n4C)cn1 [AZD0156]; settings: max 3 µM
Outline: as §1

SG3199 = compound: CC1=CN2[C@@H](C1)C=NC3=CC(=C(C=C3C2=O)OC)OCCCCCOC4=C(C=C5C(=C4)N=C[C@@H]6CC(=CN6C5=O)C)OC [SG3199]; settings: max 0.001 µM
Outline: as §1

SRA737 = compound: N#Cc1cnc(Nc2cc(NC[C@H]3CNCCO3)c(C(F)(F)F)cn2)cn1 [SRA737]; settings: max 10 µM
Outline: as §1

Olaparib = compound: O=C(c1cc(Cc2n[nH]c(=O)c3ccccc23)ccc1F)N1CCN(C(=O)C2CC2)CC1 [Olaparib]; settings: max 10 µM
Outline: as §1

AZD8186 = compound: C[C@@H](Nc1cc(F)cc(F)c1)c1cc(C(=O)N(C)C)cc2c(=O)cc(N3CCOCC3)oc12 [AZD8186]; settings: max 10 µM
Outline: as §1

AZD1775 = compound: C=CCn1c(=O)c2cnc(Nc3ccc(N4CCN(C)CC4)cc3)nc2n1-c1cccc(C(C)(C)O)n1 [AZD1775]; settings: max 3 µM
Outline: as §1

Venetoclax = compound: CC1(C)CCC(CN2CCN(c3ccc(C(=O)NS(=O)(=O)c4ccc(NCC5CCOCC5)c([N+](=O)[O-])c4)c(Oc4cnc5[nH]ccc5c4)c3)CC2)=C(c2ccc(Cl)cc2)C1 [Venetoclax]; settings: max 1 µM
Outline: as §1

AZD2811 = compound: CCN(CCO)CCCOc1ccc2c(Nc3cc(CC(=O)Nc4cccc(F)c4)[nH]n3)ncnc2c1 [AZD2811]; settings: max 1 µM
Outline: as §1

Gemcitabine = compound: Nc1ccn([C@@H]2O[C@H](CO)[C@@H](O)C2(F)F)c(=O)n1 [Gemcitabine]; settings: max 0.3 µM
Outline: as §1

MK-2206 = compound: NC1(c2ccc(-c3nc4ccn5c(=O)[nH]nc5c4cc3-c3ccccc3)cc2)CCC1 [MK-2206]; settings: max 10 µM
Outline: as §1

Savolitinib = compound: C[C@@H](c1ccc2nccn2c1)n1nnc2ncc(-c3cnn(C)c3)nc21 [Savolitinib]; settings: max 1 µM
Outline: as §1

AZD5991 = compound: Cc1c2c(nn1C)CSCc1cc(n(C)n1)CSc1cc(c3ccccc3c1)OCCCc1c(C(=O)O)n(C)c3c-2c(Cl)ccc13 [AZD5991]; settings: max 1 µM
Outline: as §1

5-Fluorouracil = compound: O=c1[nH]cc(F)c(=O)[nH]1 [5-Fluorouracil]; settings: max 20 µM
Outline: as §1

Etoposide = compound: COc1cc([C@@H]2c3cc4c(cc3[C@@H](O[C@@H]3O[C@@H]5CO[C@@H](C)O[C@H]5[C@H](O)[C@H]3O)[C@H]3COC(=O)[C@H]23)OCO4)cc(OC)c1O [Etoposide]; settings: max 10 µM
Outline: as §1

Lapatinib = compound: CS(=O)(=O)CCNCc1ccc(-c2ccc3ncnc(Nc4ccc(OCc5cccc(F)c5)c(Cl)c4)c3c2)o1 [Lapatinib]; settings: max 10 µM
Outline: as §1

Carboplatin = compound: C1CC(C1)(C(=O)[O-])C(=O)[O-].N.N.[Pt+2] [Carboplatin]; settings: max 10 µM
Outline: as §1

Gefitinib = compound: COc1cc2ncnc(Nc3ccc(F)c(Cl)c3)c2cc1OCCCN1CCOCC1 [Gefitinib]; settings: max 10 µM
Outline: as §1

AZD5153 = compound: COc1nnc2ccc(N3CCC(c4ccc(OCCN5CCN(C)C(=O)[C@H]5C)cc4)CC3)nn12 [AZD5153]; settings: max 1 µM
Outline: as §1

Palbociclib = compound: CC(=O)c1c(C)c2cnc(Nc3ccc(N4CCNCC4)cn3)nc2n(C2CCCC2)c1=O [Palbociclib]; settings: max 10 µM
Outline: as §1

AZD7648 = compound: Cc1cc2ncnn2cc1Nc1ncc2c(n1)n(C1CCOCC1)c(=O)n2C [AZD7648]; settings: max 10 µM
Outline: as §1

[1] = compound: O=C(Nc1ccc2[nH]nc(-c3ccncc3)c2c1)[C@@H]1CCN(CC(=O)N2CCN(c3ccc(-c4ncccn4)cc3)CC2)C1; settings: max 5 µM
Outline: as §1

Doxorubicin = compound: COc1cccc2c1C(=O)c1c(O)c3c(c(O)c1C2=O)C[C@@](O)(C(=O)CO)C[C@@H]3O[C@H]1C[C@H](N)[C@H](O)[C@H](C)O1 [Doxorubicin]; settings: max 1 µM
Outline: as §1

Dasatinib = compound: CC1=C(C(=CC=C1)Cl)NC(=O)C2=CN=C(S2)NC3=CC(=NC(=N3)C)N4CCN(CC4)CCO [Dasatinib]; settings: max 2 µM
Outline: as §1

AZD6738 = compound: C[C@@H]1COCCN1C2=NC(=NC(=C2)C3(CC3)[S@](=N)(=O)C)C4=C5C=CNC5=NC=C4 [AZD6738]; settings: max 10 µM
Outline: as §1

Crizotinib = compound: C[C@@H](Oc1cc(-c2cnn(C3CCNCC3)c2)cnc1N)c1c(Cl)ccc(F)c1Cl [Crizotinib]; settings: max 10 µM
Outline: as §1

Prexasertib = compound: COc1cccc(OCCCN)c1-c1cc(Nc2cnc(C#N)cn2)n[nH]1 [Prexasertib]; settings: max 1 µM
Outline: as §1

Selumetinib = compound: Cn1cnc2c(F)c(Nc3ccc(Br)cc3Cl)c(C(=O)NOCCO)cc21 [Selumetinib]; settings: max 10 µM
Outline: as §1

Trametinib = compound: CC(=O)Nc1cccc(-n2c(=O)n(C3CC3)c(=O)c3c(Nc4ccc(I)cc4F)n(C)c(=O)c(C)c32)c1 [Trametinib]; settings: max 1 µM
Outline: as §1

Paclitaxel = compound: CC(=O)O[C@H]1C(=O)[C@@]2(C)[C@H]([C@H](OC(=O)c3ccccc3)[C@]3(O)C[C@H](OC(=O)[C@H](O)[C@@H](NC(=O)c4ccccc4)c4ccccc4)C(C)=C1C3(C)C)[C@]1(OC(C)=O)CO[C@@H]1C[C@@H]2O [Paclitaxel]; settings: max 3 µM
Outline: as §1

AZD1390 = compound: CC(C)n1c(=O)n(C)c2cnc3cc(F)c(-c4ccc(OCCCN5CCCCC5)nc4)cc3c21 [AZD1390]; settings: max 0.3 µM
Outline: as §1

| Cell Line | IC50, cell viability 72 h (SN-38) [µM] | IC50, cell viability 72 h (Taselisib) [µM] | IC50, cell viability 72 h (AZD5363) [µM] | IC50, cell viability 72 h (Alisertib) [µM] | IC50, cell viability 72 h (AZD4320) [µM] | IC50, cell viability 72 h (AZD0156) [µM] | IC50, cell viability 72 h (SG3199) [µM] | IC50, cell viability 72 h (SRA737) [µM] | IC50, cell viability 72 h (Olaparib) [µM] | IC50, cell viability 72 h (AZD8186) [µM] | IC50, cell viability 72 h (AZD1775) [µM] | IC50, cell viability 72 h (Venetoclax) [µM] | IC50, cell viability 72 h (AZD2811) [µM] | IC50, cell viability 72 h (Gemcitabine) [µM] | IC50, cell viability 72 h (MK-2206) [µM] | IC50, cell viability 72 h (Savolitinib) [µM] | IC50, cell viability 72 h (AZD5991) [µM] | IC50, cell viability 72 h (5-Fluorouracil) [µM] | IC50, cell viability 72 h (Etoposide) [µM] | IC50, cell viability 72 h (Lapatinib) [µM] | IC50, cell viability 72 h (Carboplatin) [µM] | IC50, cell viability 72 h (Gefitinib) [µM] | IC50, cell viability 72 h (AZD5153) [µM] | IC50, cell viability 72 h (Palbociclib) [µM] | IC50, cell viability 72 h (AZD7648) [µM] | IC50, cell viability 72 h [1] [µM] | IC50, cell viability 72 h (Doxorubicin) [µM] | IC50, cell viability 72 h (Dasatinib) [µM] | IC50, cell viability 72 h (AZD6738) [µM] | IC50, cell viability 72 h (Crizotinib) [µM] | IC50, cell viability 72 h (Prexasertib) [µM] | IC50, cell viability 72 h (Selumetinib) [µM] | IC50, cell viability 72 h (Trametinib) [µM] | IC50, cell viability 72 h (Paclitaxel) [µM] | IC50, cell viability 72 h (AZD1390) [µM] |
| --- | --- | --- | --- | --- | --- | --- | --- | --- | --- | --- | --- | --- | --- | --- | --- | --- | --- | --- | --- | --- | --- | --- | --- | --- | --- | --- | --- | --- | --- | --- | --- | --- | --- | --- | --- |
| KYSE-270 (Esophageal Squamous Cell Carcinoma) | 0.0107 | 3.47 | > 10 | > 10 | > 1 | > 3 | > 0.001 | 1.4 | > 10 | > 10 | 0.665 | > 1 | > 1 | 0.0359 | > 10 | > 1 | > 1 | 14.9 | 4.58 | 7.84 | > 10 | 8.19 | > 1 | > 10 | > 10 | > 5 | 0.424 | 0.506 | 4.16 | > 10 | 0.00806 | > 10 | > 1 | 0.0394 | > 0.3 |
| M059J (Glioblastoma) | 0.0141 | > 10 | > 10 | 4.06 | > 1 | > 3 | > 0.001 | > 10 | > 10 | > 10 | 0.933 | > 1 | > 1 | 0.0909 | > 10 | > 1 | > 1 | > 20 | 2.59 | > 10 | > 10 | > 10 | 0.164 | > 10 | > 10 | > 5 | 0.23 | 1.39 | > 10 | > 10 | 0.241 | > 10 | > 1 | 0.0176 | > 0.3 |
